Patent US8337906B2, “Nasal composition” (priority 2006, dated 2012)

Tests used:
Assay type in all cases: cell-based
[1] = test system: human sinonasal mucosa cilia; assay: Cilia beat frequency (CBF) in human sinonasal mucosa explants
Text: […] were subjected to concentrations of the nasal spray solution to test the effect of the product on the cilia beat frequency (CBF). The samples were microscopically visualized and the images captured at a rate of 250 frames per second using digital image sampling. The samples were first visualized for two to three seconds every minute for five minutes to establish a baseline Cilia Beating Rate. The samples were then subjected to dilutions of the formulation and the effect on the beating rate was measured by comparing this rate to the baseline rate. The results of the measured CBF are seen in FIG. 2.
More specifically, using a dual temperature controlled perfusion chamber, differential interference contrast microscopy, and high speed digital video, epithelial ciliary function was analyzed as described previously (Schipor I, Palmer I N, Cohen A S, Cohen N A. Quantification of ciliary beat frequency in sinonasal epithelial cells using differential interference contrast microscopy and high speed digital video imaging. Am J Rhino 12006; 20: 124-7). Residual human sinonasal mucosa from surgery was placed in ice cold Locke Ringer's solution [136 mM Nacl, 5.6 mM KCI, 10 mM HEPES, 14.3 mM NaHCO, 1.2 mM MgCl2, 2.2 mM CaCl2 and 11.5 mM dextrose, pH 7.35] for transport. Explants were placed in a glass perfusion chamber on a thermostatically controlled stage and held in place with a nylon grid (1.5 mm) whose outer frame is snapped into the inside of the perfusion chamber. The stage and perfusate were maintained at a temperature between 35.5° C. and 37° C. with a dual channel heater (Warner Inst., Hamden Conn.). […]
Images were visualized using a Leica DMLFSA microscope set on an air table (TMC, Peabody, Mass.) using a water immersion 63× objective and differential interference contrast (DIC) optics (Leica Microsystems, Inc., Bannockburn, Ill.). […] A two to three second video was recorded every minute for 5 minutes to establish a baseline frequency. […] The video images were written to a PCI 2.2 board and then analyzed using Midas Professional Analyst video imaging processing software (XCitex, Cambridge, Mass.).
Beating cilia were analyzed using the 1-D line tracking algorithm included in the motion analysis software. […] The software captured the motion history within the analysis grid for the duration of the video and recorded the gray scale intensity variation as a function of time. […] The frequency was calculated as the inverse of the peak-to-peak distance of this waveform. For each sample, at least three areas of beating cilia within the same field were analyzed and the reported frequencies represent the arithmetic means of these values. […]

[2] = test system: Pseudomonas aeruginosa (PAO1) biofilm; assay: Peg-lid biofilm formation assay (crystal violet, 595 nm); conditions: dilutions 0.010% to 10.000%
Protocol: (§1) The anti-bacterial properties of ascorbic acid were evaluated by testing the effect of dilutions of the material on both biofilm and planktonic growth forms of a Pseudomonas aeruginosa isolate that was obtained from patients with cystic fibrosis. Pseudomonas aeruginosa is a common pathogen isolated from the sinuses of patients with chronic rhinosinusitis. The results of this evaluation as shown graphically in FIG. 1.
(§2) Known concentrations of the bacteria were placed in the 96 well culture plates. Dilutions of ascorbic acid (0% (Control), 0.010%, 0.033%, 0.100%, 0.330%, 1.000%, 3.330%, and 10.000%) were added to predetermined wells. […] The bacterial growth was measured both on the pegs as a biofilm and in the wells as planktonic cells.
(§3) More specifically, both bacterial planktonic and biofilm growth were determined using a modification of the plate based assay described by “Moskowitz et al. (Moskowitz S M, Foster J M, Emerson J, et al. Clinically feasible biofilm susceptibility for isolates of Pseudomonas aeruginosa from patients with cystic fibrosis. J. Clin. Microbiol. 2004, 42: 1915-1922). […] The original culture plate was read at OD600 to determine planktonic growth. […] The lid containing the pegs was then removed from the eluted crystal violet and read at 595 nm using a plate reader (Microplate Reader 680, Bio-Rad Hercules, Calif.). […]

[3] = test system: Pseudomonas aeruginosa (PAO1); assay: Plate based assay, planktonic growth (OD600); conditions: dilutions 0.010% to 10.000%
Protocol: as §1, §2, §3

## O=C1O[C@H]([C@@H](O)CO)C(O)=C1O [ascorbate, ascorbic acid]
[1]; 0.01% to 0.1%
  sinonasal CBF with increasing concentration (in words): increasing trend
[1]; 0.1% ascorbate vs control
  increase in CBF: 13.5%
[1]; 0.1% ascorbate, extrapolated from CBF increase
  increase in mucous transport: ~50%
[1]; 0.1% ascorbate, control 11.8 Hz
  CBF: 1304 Hz
[2]
  inhibition of biofilm form (in words): dose dependent inhibition
[3]
  inhibition of planktonic form (in words): dose dependent inhibition
